Source: PMC7875911 (Frontiers in Pharmacology, 2021)
Read-outs that look alike come from different tables or passages of the source. No end group written: not given here.

Legend:
animal pain models = settings: cited from earlier work
Excerpt: […]. Nav channels are structurally related to voltage-gated calcium (Cav) channels, Cav1 and Cav2. […] […].

[1] = system: voltage-gated ion channels (VGICs); settings: cited from earlier work; for inhibition of Nav and Cav channels (in words): Chuang et al., Yamamoto and Sakashita, Middleton et al., Sidach and Mintz, Xiao et al., 2005
Nav1.7 = settings: cited from earlier work
Excerpt: Loss-of-function mutation of the SCN9A gene that codes for Nav1.7 leads to congenital insensitivity to pain ([Cox et al., 2006]), whereas SCN9A gain-of-function mutations causes paroxysmal extreme pain disorder and primary erythromelalgia ([Dib-Hajj et al., 2008]). […] Homology of VGIC voltage sensing domains, and particularly those of Nav channels, is at the crux of the development of genuinely selective Nav1.7 modulators ([Kingwell, 2019]). Given the VSD functional importance in neuronal VGICs and their structural homology, it is not surprising that VDPs target related channel families. […] Mammalian Nav and Cav α-subunits are structurally homologous but differ in their gating mechanisms ([Kubota et al., 2017]).

[2] = system: HVA I Ca in small-diameter IB4 ^− DRG neurons; assay: cells
Experimental: Spinal level L3–L5 DRG were removed and placed in ice-cold HEPES-buffered saline (HBS) composed of (in mM): 154 NaCl, 2.5 KCl, 1.8 CaCl2, 1.5 MgCl2, 10 HEPES, and 10 glucose (pH 7.4, 330 ± 5 mOsm). Iridectomy scissors were utilized to cut up ganglia before incubation at 37°C for 15 min in oxygenated HBS containing 5 mg ml^−1 collagenase type 2 (Worthington Biochemical Corp, Lakewood, NJ, United States) followed by 25 min in oxygenated HBS containing 1 mg ml^−1 papain (Worthington Biochemical Corp). […] After enzyme treatment, ganglia were placed in 3 ml of HBS following two room temperature HBS washes. Ganglia were then triturated through fire-polished Pasteur pipettes with decreasing bores to extract cells. Finally, the cells mixed in HBS were plated onto surface modified culture dishes (Corning Primaria™ easy grip). […] DRG cells were pre-treated with 1 μg ml^−1 Alexa Fluor 488-conjugated Bandeiraea simplicifolia IB4 (Invitrogen) for 5 min at room temperature and washed with HBS for 5 min before fluorescence was examined on the inverted microscope (Olympus, IX50) used for patch clamp recordings.
Cell size was determined from an eyepiece graticule. Whole-cell electrophysiology was conducted at room temperature (22–24°C) in culture dishes perfused with room temperature HBS. The intracellular pipette solution contained (mM): 120 CsCl, 10 HEPES, 10 EGTA, 2 CaCl2, 5 MgATP, 5 Na2GTP, 5 NaCl; pH 7.3 (CsOH); 285 ± 5 mos mol l^−1.
An EPC-9 patch-clamp amplifier and corresponding PULSE software from HEKA Electronik (Lambrecht/Pfalz, Germany) were used to make recordings. Currents were sampled at 50 kHz and recorded on a hard disk. Borosilicate glass from AM Systems, Everett, WA, United States were used for patch pipettes. The input resistance of the pipettes ranged from 2 to 4 MΩ. […] A built-in procedure of the HEKA amplifier compensated for the capacitive transient currents. A −P/6 protocol was utilized to subtract leak current online. I Ca was generated with the recording protocol which included a depolarization from a holding potential of −80 mV to 0 mV for 10 ms every 30 s. I Na was generated through a recording protocol which included a step depolarization from a holding potential of −80 mV to 0 mV for 10 ms at a frequency of 0.1 Hz. Cells were perfused with the test compound via a pressure driven perfusion system (AutoMate Scientific, United States).
All data analysis and graphs were generated in OriginPro (Origin Lab Corporation, United States). […] Activation and SSI curves were fit by the modified Boltzmann equation: I or G=1/(1+exp(Vm−V0.5/ka)) Where I is the current or G is the conductance, Vm is the pre-pulse potential, V 0.5 is the half-maximal activation potential and ka is the slope factor.
Statistical significance (p < 0.05) was determined using unpaired Student’s t-test or 1-way ANOVA followed by a Tukey multiple comparison. All data is presented as mean ± SEM (n), where n is individual cells.

[3] = system: T-type and L-type Cav channels; settings: ref Chuang et al., 1998, Olamendi-Portugal et al., 2002, Sidach and Mintz; cited from earlier work
Excerpt: (§1) Mammalian Nav and Cav α-subunits are structurally homologous but differ in their gating mechanisms ([Kubota et al., 2017]).

N-type Cav channel = settings: ref Chuang et al., 1998, Olamendi-Portugal et al., 2002, Sidach and Mintz; cited from earlier work
Excerpt: as §1

Nav1.2 and Nav1.5 = settings: ref Chuang et al., 1998, Olamendi-Portugal et al., 2002, Sidach and Mintz; cited from earlier work
Excerpt: as §1

P-type calcium channels = settings: ref Chuang et al., 1998, Olamendi-Portugal et al., 2002, Sidach and Mintz; cited from earlier work
Excerpt: as §1

[4] = ref Kuenzi and Dale, 1996, Caterina et al., 1997, McArthur et al., 2019
[5] = ref Swartz and MacKinnon, 1995, 1998, Li-Smerin and Swartz, 2002, Bosmans et al., 2008, Bladen et al., 2014

Cn1nccc1-c1ccccc1Oc1ccc(S(=O)(=O)Nc2nccs2)cc1C#N [PF-04856264]
effect in rodent models of acute nociception or inflammatory pain (in words) (animal pain models; small molecule, ref Deuis et al., 2017): ineffective

COc1cc(CNC(=O)CCCC/C=C/C(C)C)ccc1O [capsaicin]
channel families acted on [1, 4]: TRPV1/Kv/Cav

Oc1cc2c(cc1O)CN(C(=S)NCCc1ccc(Cl)cc1)CCC2 [capsazepine]
channel families acted on [1, 4]: TRPV1/Kv/Cav

CN1CC[C@]23c4c5ccc(O)c4O[C@H]2[C@@H](O)C=C[C@H]3[C@H]1C5 [morphine]
antinociceptive effect in the presence of Cav1 and Cav2.2 channel inhibitors (in words) (animal pain models; in vivo): enhanced

C=CCN1CC[C@]23c4c5ccc(O)c4O[C@H]2C(=O)CC[C@@]3(O)[C@H]1C5 [naloxone, reference compound]
effect on Nav1.7 currents (in words) (Nav1.7): did not alter Nav1.7 currents | inhibition at 1 µM ([2]; Rattus norvegicus, DRG neuron, read-out: inhibition of I Ca): 1.68 ± 0.61%

COc1ccc2c3c1O[C@H]1C(=O)CC[C@@]4(O)[C@@H](C2)N(C)CC[C@]314 [oxycodone, reference compound]
effect on Nav1.7 currents (in words) (Nav1.7; opioid receptor modulators, ref Mueller et al., 2019): did not alter Nav1.7 currents

NC1=N[C@H](O)[C@H]2[C@H]3O[C@]4(O)O[C@@H]([C@@H](O)[C@@]2(N1)[C@@H]4O)[C@]3(O)CO [tetrodotoxin]
channel families acted on [1]: Nav/Cav

Hanatoxin
inhibition of Nav and Cav channels (in words) [1, 5]: inhibit both Nav and Cav channels | channel families acted on ([1]; ref Swartz and MacKinnon, 1995, Li-Smerin and Swartz, 1998, Bosmans et al., 2008): Kv/Nav/Cav

ProTxI: voltage-sensing domain (VSD) gating modifier toxin (ECRYWLGGCSAGQTCCKHLVCSRRHGWCVWDGTFS; ends and bridges not checked; cysteine pairing not given here; UniProt P83480 1-35, looked up)
channel families acted on ([1]; ref Middleton et al., 2002, Bosmans et al., 2008, Bladen et al., 2014, Gui et al.): Nav/Kv/Cav/TRPA1 | inhibition of Nav and Cav channels (in words) [1, 5]: inhibit both Nav and Cav channels

ProTxII
effect in rodent models of acute nociception or inflammatory pain (in words) (animal pain models; ref Schmalhofer et al., 2008): ineffective | channel families acted on ([1]; ref Middleton et al., 2002, Bladen et al., 2014): Nav/Cav | inhibition of Nav and Cav channels (in words) [1, 5]: inhibit both Nav and Cav channels

[D-Ala^2, N-MePhe^4, Gly-ol]-Enkephalin [DAMGO, reference compound]
antinociceptive effect in the presence of Cav1 and Cav2.2 channel inhibitors (in words) (animal pain models; ref Contreras et al., 1988, Barro et al., 1995): enhanced | inhibition of HVA I Ca ([2]; 100 nM DAMGO applied alone, small IB4− rat DRG neurons, mean ± SEM, n = 6): 6.49 ± 1.07%

B1: Kurtoxin: scorpion peptide, gating modifier toxin (peptide, UniProt P58910 1-63, looked up)
Kurtoxin: KIDGYPVDYWNCKRICWYNNKYCNDLCKGLKADSGYCWGWTLSCYCQGLPDNARIKRSGRCRA
modifications: ends and bridges not checked
channel families acted on ([1]; ref Chuang et al., 1998): Nav/Cav | inhibition of Nav and Cav channels (in words) [1, 5]: inhibit both Nav and Cav channels | effect on deactivation (in words) [3]: accelerates deactivation | effect on N-type Cav channel kinetics (in words) (N-type Cav channel): little to no alteration | effect on inactivation of Nav1.2 and Nav1.5 (in words) (Nav1.2 and Nav1.5): slows inactivation | effect on deactivation (in words) (P-type calcium channels): slows deactivation
